Experiments:
Assay in all cases: relative viability (nuclei count vs DMSO), 5 days (fraction); higher = more cells survive
[1] = compound: CCCCCCCCCCCC1=C(O)C(=O)C=C(O)C1=O [Embelin]
Method in brief: (§1)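 Acceptance criteria were a control CV below 25% and at least one doubling per plate. Lung cancer cell lines in 1536-well plates got five library-drug doses (not always all listed) √10 apart by pinning and were left 5 days with no medium change. Viability divides treated-well nuclei by vehicle-well nuclei and is the median across plates. Nuclei were counted by MetaXpress from 4× Hoechst images.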

[2] = compound: CC(C)S(=O)(=O)C1=CC=CC=C1NC2=NC(=NC(=C2Cl)N)NC3=C(C=C(C=C3)N4CCC(CC4)C(=O)N)OC [HG-5-88-01]
Method in brief: as §1

[3] = compound: CC(C)Oc1cc(Nc2nc(N[C@@H](C)c3ccc(F)cn3)ncc2Cl)n[nH]1 [AZ23]
Method in brief: as §1

[4] = compound: C[C@@H]1CN(CC(=O)Nc2ccc3c(c2)Cc2cccc(-c4cc(=O)cc(N5CCOCC5)o4)c2S3)C[C@H](C)O1
Method in brief: as §1

[5] = compound: Clc1ccc(Nc2nnc(Cc3ccncc3)c3ccccc23)cc1 [Vatalanib]
Method in brief: as §1

| Cell Line | relative viability ([1]; 0.08 µM) | relative viability ([1]; 0.8 µM) | relative viability ([1]; 2.53 µM) | relative viability ([1]; 8 µM) | relative viability ([2]; 0.04 µM) | relative viability ([2]; 0.1265 µM) | relative viability ([2]; 0.4 µM) | relative viability ([2]; 1.265 µM) | relative viability ([2]; 4 µM) | relative viability ([3]; 0.01 µM) | relative viability ([3]; 0.03162 µM) | relative viability ([3]; 0.3162 µM) | relative viability ([4]; 0.04 µM) | relative viability ([4]; 0.1265 µM) | relative viability ([4]; 0.4 µM) | relative viability ([4]; 4 µM) | relative viability ([5]; 0.04 µM) | relative viability ([5]; 0.1265 µM) | relative viability ([5]; 0.4 µM) | relative viability ([5]; 1.265 µM) | relative viability ([5]; 4 µM) |
| --- | --- | --- | --- | --- | --- | --- | --- | --- | --- | --- | --- | --- | --- | --- | --- | --- | --- | --- | --- | --- | --- |
| NCI-H3122 | 0.986 | 1.05 | 1.01 | 1.07 | 0.865 | 0.585 | 0.254 | 0.236 | 0.169 | 1.12 | 1.13 | 1.06 | 1.05 | 0.993 | 1.03 | 0.883 | 1.01 | 0.975 | 1.02 | 0.959 | 0.98 |
| PC-3 [JPC-3] | 1.08 | 1.05 | 1.11 | 0.974 | 1.08 | 1.05 | 0.998 | 0.749 | 0.477 | 1.08 | 1.12 | 1.04 | 0.976 | 1.01 | 1.03 | 0.986 | 0.974 | 0.984 | 1 | 1.01 | 0.988 |
| PC-14 | 0.997 | 1.15 | 1 | 1.06 | 1.05 | 0.985 | 0.901 | 0.735 | 0.38 | 0.748 | 1.22 | 1.08 | 1 | 0.943 | 1.02 | 0.863 | 1.01 | 0.921 | 0.905 | 0.904 | 0.958 |
| RERF-LC-KJ | 0.978 | 1.01 | 1.07 | 1 | 1.05 | 0.992 | 0.975 | 0.865 | 0.724 | 1.08 | 0.987 | 1.03 | 1.01 | 1.01 | 0.962 | 0.872 | 1.02 | 0.961 | 1.04 | 0.857 | 0.857 |
| SK-LU-1 | 1.13 | 1.19 | 1.26 | 0.928 | 0.982 | 1.04 | 0.998 | 0.876 | 0.708 | – | 1.14 | 1.08 | 1.04 | 1.04 | 1.1 | 0.853 | 1.09 | 0.993 | 1.14 | 1.04 | 1.05 |
| SK-MES-1 | 1.02 | 1.07 | 1.13 | 0.954 | 0.983 | 0.962 | 0.966 | 0.924 | 1.05 | 0.745 | 1.08 | 1.08 | 1.09 | 1.05 | 0.923 | 0.8 | 1.03 | 0.913 | 1.09 | 0.971 | 0.893 |
| SW 900 | 0.866 | 0.954 | 1.01 | 0.581 | 0.901 | 0.881 | 0.86 | 0.888 | 0.497 | 0.764 | 0.635 | 0.883 | 0.854 | 0.899 | 0.954 | 0.708 | 0.698 | 0.807 | 1.07 | 0.737 | 1.03 |
| SW 1573 | 0.972 | 1.33 | 1.16 | 1.02 | 0.962 | 0.978 | 0.969 | 0.834 | 0.864 | 1.15 | 1.16 | 0.881 | 0.992 | 1.04 | 0.922 | 1.06 | 0.957 | 0.995 | 1.19 | 0.868 | 1.03 |
| UMC-11 | 0.987 | 1.07 | 1.02 | 0.974 | 0.887 | 1.02 | 0.843 | 0.943 | 0.807 | 0.954 | 1.01 | 0.968 | 0.969 | 0.938 | 1.01 | 0.865 | 1 | 0.953 | 0.954 | 0.984 | 1.03 |

— the supplement of paper PMC10307832
